Results as given in PubChem BioAssay (NCI).
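48-hour exposure; five concentrations; linearly interpolated endpoints. At the GI50, growth is halved. TGI denotes the concentration required for complete inhibition of growth.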

Experiments:
Assay in all cases: NCI tumour cell line growth inhibition, 48 h
SK-MEL-2 melanoma = system: SK-MEL-2 melanoma
HT29 colon = system: HT29 colon
COLO 205 colon = system: COLO 205 colon
CCRF-CEM leukemia = system: CCRF-CEM leukemia
TK-10 renal = system: TK-10 renal
SW-620 colon = system: SW-620 colon
SN12C renal = system: SN12C renal
RPMI-8226 leukemia = system: RPMI-8226 leukemia
CAKI-1 renal = system: CAKI-1 renal
SK-MEL-28 melanoma = system: SK-MEL-28 melanoma
HL-60(TB) leukemia = system: HL-60(TB) leukemia
HS 578T breast = system: HS 578T breast
HCT-15 colon = system: HCT-15 colon
HCT-116 colon = system: HCT-116 colon
BT-549 breast = system: BT-549 breast
SK-MEL-5 melanoma = system: SK-MEL-5 melanoma
A549 NSCLC = system: A549 NSCLC
U251 CNS = system: U251 CNS
OVCAR-4 ovarian = system: OVCAR-4 ovarian
K-562 leukemia = system: K-562 leukemia
UACC-62 melanoma = system: UACC-62 melanoma
SF-295 CNS = system: SF-295 CNS
HCC-2998 colon = system: HCC-2998 colon
DU-145 prostate = system: DU-145 prostate
NCI-H23 lung = system: NCI-H23 lung
PC-3 prostate = system: PC-3 prostate
NCI-H226 lung = system: NCI-H226 lung
UACC-257 melanoma = system: UACC-257 melanoma
786-0 renal = system: 786-0 renal
MOLT-4 leukemia = system: MOLT-4 leukemia
SR leukemia = system: SR leukemia
NCI-H522 lung = system: NCI-H522 lung
SNB-75 CNS = system: SNB-75 CNS
MCF7 breast = system: MCF7 breast
SF-539 CNS = system: SF-539 CNS
HOP-92 NSCLC = system: HOP-92 NSCLC
NCI/ADR-RES ovarian = system: NCI/ADR-RES ovarian
SK-OV-3 ovarian = system: SK-OV-3 ovarian
KM12 colon = system: KM12 colon
OVCAR-3 ovarian = system: OVCAR-3 ovarian
EKVX NSCLC = system: EKVX NSCLC
MDA-MB-231 breast = system: MDA-MB-231 breast
RXF 393 renal = system: RXF 393 renal
IGROV1 ovarian = system: IGROV1 ovarian
MALME-3M melanoma = system: MALME-3M melanoma
SF-268 CNS = system: SF-268 CNS
ACHN renal = system: ACHN renal
M14 melanoma = system: M14 melanoma
T-47D breast = system: T-47D breast
LOX IMVI melanoma = system: LOX IMVI melanoma
UO-31 renal = system: UO-31 renal
SNB-19 CNS = system: SNB-19 CNS
NCI-H460 lung = system: NCI-H460 lung
OVCAR-8 ovarian = system: OVCAR-8 ovarian
HOP-62 NSCLC = system: HOP-62 NSCLC
OVCAR-5 ovarian = system: OVCAR-5 ovarian
A498 renal = system: A498 renal
MDA-MB-435 = system: MDA-MB-435

Question: What does the source list for `C/C(=N/Nc1nc2ccccc2n1C)c1ccccn1`?
Answer: GI50 (SK-MEL-2 melanoma): 706 nM; TGI (SK-MEL-2 melanoma): 22300 nM; GI50 (HT29 colon): 44 nM; TGI (HT29 colon): 24400 nM; GI50 (COLO 205 colon): 25.4 nM; TGI (COLO 205 colon): 10900 nM; GI50 (CCRF-CEM leukemia): 25.2 nM; GI50 (TK-10 renal): 440 nM; TGI (TK-10 renal): 32600 nM; GI50 (SW-620 colon): 42.9 nM; TGI (SW-620 colon): 21800 nM; GI50 (SN12C renal): 106 nM; TGI (SN12C renal): 23000 nM; GI50 (RPMI-8226 leukemia): 39.8 nM; TGI (RPMI-8226 leukemia): 15300 nM; GI50 (CAKI-1 renal): 104 nM; TGI (CAKI-1 renal): 2140 nM; GI50 (SK-MEL-28 melanoma): 256 nM; TGI (SK-MEL-28 melanoma): 29100 nM; GI50 (HL-60(TB) leukemia): 17.7 nM; TGI (HL-60(TB) leukemia): 391 nM; GI50 (HS 578T breast): 287 nM; TGI (HS 578T breast): 25600 nM; GI50 (HCT-15 colon): 17.1 nM; TGI (HCT-15 colon): 27900 nM; TGI (HCT-116 colon): 14800 nM; GI50 (BT-549 breast): 223 nM; TGI (BT-549 breast): 25500 nM; GI50 (SK-MEL-5 melanoma): 162 nM; TGI (SK-MEL-5 melanoma): 3960 nM; GI50 (A549 NSCLC): 106 nM; TGI (A549 NSCLC): 14500 nM; GI50 (U251 CNS): 115 nM; TGI (U251 CNS): 19700 nM; GI50 (OVCAR-4 ovarian): 29.2 nM; TGI (OVCAR-4 ovarian): 11800 nM; GI50 (K-562 leukemia): 17.3 nM; TGI (K-562 leukemia): > 100000 nM; GI50 (UACC-62 melanoma): 140 nM; TGI (UACC-62 melanoma): 793 nM; GI50 (SF-295 CNS): 280 nM; TGI (SF-295 CNS): 4970 nM; GI50 (HCC-2998 colon): 493 nM; TGI (HCC-2998 colon): 15600 nM; GI50 (DU-145 prostate): 141 nM; TGI (DU-145 prostate): 17700 nM; GI50 (NCI-H23 lung): 44.3 nM; TGI (NCI-H23 lung): 19300 nM; GI50 (PC-3 prostate): 36.9 nM; TGI (PC-3 prostate): 36000 nM; GI50 (NCI-H226 lung): 58.4 nM; TGI (NCI-H226 lung): 4690 nM; GI50 (UACC-257 melanoma): 37.7 nM; TGI (UACC-257 melanoma): 489 nM; GI50 (786-0 renal): 63.8 nM; TGI (786-0 renal): 10600 nM; GI50 (MOLT-4 leukemia): 22.6 nM; TGI (MOLT-4 leukemia): > 39100 nM; GI50 (SR leukemia): 47 nM; TGI (SR leukemia): > 89700 nM; GI50 (NCI-H522 lung): 223 nM; TGI (NCI-H522 lung): 9340 nM; GI50 (SNB-75 CNS): 246 nM; TGI (SNB-75 CNS): 8860 nM; GI50 (MCF7 breast): 27.6 nM; TGI (MCF7 breast): 16100 nM; GI50 (SF-539 CNS): 225 nM; TGI (SF-539 CNS): 1940 nM; GI50 (HOP-92 NSCLC): 261 nM; TGI (HOP-92 NSCLC): 20000 nM; GI50 (NCI/ADR-RES ovarian): 36.4 nM; TGI (NCI/ADR-RES ovarian): 555 nM; GI50 (SK-OV-3 ovarian): 113 nM; TGI (SK-OV-3 ovarian): 5930 nM; GI50 (KM12 colon): 202 nM; TGI (KM12 colon): 20700 nM; GI50 (OVCAR-3 ovarian): < 15.3 nM; TGI (OVCAR-3 ovarian): 14100 nM; GI50 (EKVX NSCLC): 41.8 nM; TGI (EKVX NSCLC): 13500 nM; GI50 (MDA-MB-231 breast): 56.1 nM; TGI (MDA-MB-231 breast): 15300 nM; GI50 (RXF 393 renal): 169 nM; TGI (RXF 393 renal): 3240 nM; GI50 (IGROV1 ovarian): 32.7 nM; TGI (IGROV1 ovarian): 12500 nM; GI50 (MALME-3M melanoma): 148 nM; TGI (MALME-3M melanoma): 16700 nM; GI50 (SF-268 CNS): 202 nM; TGI (SF-268 CNS): > 35600 nM; GI50 (ACHN renal): 13.6 nM; TGI (ACHN renal): 7700 nM; GI50 (M14 melanoma): 48.9 nM; TGI (M14 melanoma): 285 nM; GI50 (T-47D breast): < 14.4 nM; TGI (T-47D breast): 11600 nM; GI50 (LOX IMVI melanoma): 51.4 nM; TGI (LOX IMVI melanoma): 11400 nM; GI50 (UO-31 renal): 67.2 nM; TGI (UO-31 renal): 1590 nM; GI50 (SNB-19 CNS): 327 nM; TGI (SNB-19 CNS): > 100000 nM; GI50 (NCI-H460 lung): 133 nM; TGI (NCI-H460 lung): 1950 nM; GI50 (OVCAR-8 ovarian): 118 nM; TGI (OVCAR-8 ovarian): 16200 nM; GI50 (HOP-62 NSCLC): 185 nM; TGI (HOP-62 NSCLC): 4490 nM; GI50 (OVCAR-5 ovarian): 243 nM; TGI (OVCAR-5 ovarian): 39700 nM; GI50 (A498 renal): 123 nM; TGI (A498 renal): 810 nM; GI50 (MDA-MB-435): 229 nM; TGI (MDA-MB-435): 20700 nM
